Data taken from patent US11174233B1, “Anti-cancer compounds having oxazolone derivation” (King Abdulaziz University, priority 2019, dated 2021).
Read-outs that look alike come from different tables or passages of the source.

Legend:
[1] = test system: MCF-7 (breast) cancer cells; experiment: SRB cytotoxicity assay against MCF7; assay type: cell-based, human; conditions: Homo sapiens, 72 h treatment
Procedure: (§1) MCF-7 (breast) and PC3 (prostate) cancer cells were each grown in RPMI-1640 medium supplemented with 10% heat inactivated FBS, 50 units/mL of penicillin, and […] of streptomycin. The cultures were maintained at 37° C. in a humidified atmosphere containing 5% CO2. The cells were maintained as “monolayer culture” by serial sub-culturing.
(§2) Cytotoxicity was determined using SRB method as previously described by Skehan et al. [Skehan P.; Storeng R.; Scudiero D.; Monks A.; McMahon J.; al., V. D. e., New colorimetric cytotoxicity assay for anticancer drug screening. […] Exponentially growing cells were collected using 0.25% Trypsin-EDTA and seeded in 96-well plates at 1000-2000 cells/well in RPMI-1640 supplemented medium. After 24 h, cells were incubated for 72 h with various concentrations of the tested compounds. Following 72 h treatment, the cells would be fixed with 10% trichloroacetic acid for 1 h at 4° C. Wells were stained for 10 min at room temperature with 0.4% SRB dissolved in 1% acetic acid. The plates were air dried for 24 h and the dye was solubilized with Tris-HCl for 5 min on a shaker at 1600 rpm. The optical density (OD) of each well was measured spectrophotometrically at 564 nm with an ELISA microplate reader (ChroMate-4300, FL, USA). The IC50 values were calculated according to the equation for Boltzman sigmoidal concentration—response curve using the nonlinear regression fitting models (Graph Pad, Prism Version 5).

[2] = test system: PC3 (prostate) cancer cells; experiment: SRB cytotoxicity assay against PC3; assay type: cell-based, human; conditions: Homo sapiens, 72 h treatment
Procedure: as §1, §2

HL-60 leukemia cells [3] = experiment: CellTiter-Blue cell viability assay on HL-60; assay type: cell-based; conditions: Homo sapiens, HL-60 cells, 48 h
Procedure: (§3) HL-60 were purchased from CLS Cell Line Service GmbH (Eppelheim, Germany) and cultured in Roswell Park Memorial Institute-1640 medium (RPMI-1640; Thermo Fisher Scientific, Inc; Waltham, Mass., USA) supplemented with 10% fetal bovine serum (FBS; Thermo Fisher Scientific) and ciprofloxacin (10 μg/mL; Cipla Limited; Mumbai, India), at 37° C. with 5% CO2 in a humidified incubator.
The CellTiter®-Blue Cell Viability assay was acquired from Promega Corporation (Madison, Wis., USA). Cell viability assay was performed as follows. The cells (10^4/well) were incubated with a concentration gradient of KIM-161C and KIM-241C ranging from 0.01 to 100 in 96-well plates for 48 h at 37° C. Subsequently, 20 μL CellTiter®-Blue Cell Viability reagent was added to each well and incubated for an additional 2 h for the development of fluorescence. The fluorescence emission was measured at 590 nm using the SpectraMax® i3× Multi-Mode microplate reader (Molecular Devices, LLC; San Jose, Calif., USA.) and plotted against drug concentrations to determine the mean inhibitory concentration of KIM-161C and KIM-241C producing 50% decrease in cell viability (IC50).

HL-60 leukemia cells [4] = experiment: Cell cycle analysis of Hoechst 33342 stained HL-60 cells by flow cytometry; assay type: cell-based, human; conditions: 48 h
Procedure: as §3
The cells (3.5×10^5) were incubated with two different concentrations of KIM-161C at 37° C. for 48 h. Subsequently, the cells were collected and washed twice with ice-cold PBS (1×). The washed cells were fixed on ice for 20 min using a fixation buffer containing paraformaldehyde. Hoechst 33342 (10 μg/mL; Thermo Fisher Scientific, Inc.) was used for staining. The cells were then incubated in the dark for 30 min on ice. A minimum total of 20,000 events were acquired using a BD FACSAria III flow cytometer. Flowlogic version 7.2.1 software (Inivai Technologies, Victoria, Australia) was used to obtain the percentages of cells in the G1, S, and G2/M phases in the singlet-gated population.

HL-60 leukemia cells [5] = experiment: Apoptosis detection by caspase 3 activity in HL-60 cells; assay type: cell-based, human
Procedure: as §3
The caspase family of cysteine proteases are important regulators in the apoptosis. Caspase 3 belongs to the effector (caspase 3, 6 and 7) class of proteases and it is a key protease that is activated during early stages of apoptosis. […] The activated caspase 3 is a marker for cell apoptosis that proteolytically cleaves and activates other caspases and intracellular targets [Patel, T.; Gores, G. J.; Kaufmann, S. H., The role of proteases during apoptosis. FASEB journal: official publication of the Federation of American Societies for Experimental Biology 1996, 10 (5), 587-97].
FITC conjugated active caspase-3 antibody (BD biosciences, USA) was used to detect the active form of caspase 3 in the cells undergoing apoptosis. […] The collected cells were washed twice in cold 1×PBS and then re-suspended in a 0.5 mL BD Cytofix/Cytoperm solution followed by 20 min incubation on ice. After incubation, cells were washed twice in a BD Perm/Wash buffer (1×) and then labelled with 5 μL of FITC rabbit anti-caspase 3 antibodies. The labelled cells were washed again with wash buffer and re-suspended in a 0.5 mL buffer and analyzed by acquiring a minimum of 5000 events on the FACS Aria III cell analyzer and sorter.

Structure (SMILES) | IC50 [1] [µM] | IC50 [2] [µM] | melting point [°C] | IC50 (HL-60 leukemia cells [3]; read-out: IC50 value, HL-60 cell viability) [nM] | cells in the G1 phase (HL-60 leukemia cells [4]; 362.5 nM) | increase in the cells in G2/M stage as compared to the control (HL-60 leukemia cells [4]; 725 nM) [fold] | increase in the cells undergoing apoptosis as compared to the basal apoptosis (HL-60 leukemia cells [5]; 362.5 nM, 24 h) | increase in the cells undergoing apoptosis as compared to the basal apoptosis (HL-60 leukemia cells [5]; 362.5 nM, 48 h) | increase in the cells undergoing apoptosis as compared to the basal apoptosis (HL-60 leukemia cells [5]; 725 nM, 24 h) | increase in the cells undergoing apoptosis as compared to the basal apoptosis (HL-60 leukemia cells [5]; 725 nM, 48 h) [fold] | IC50 (HL-60 leukemia cells [3]; read-out: IC50 value, HL-60 cell viability (could not be obtained even at this concentration)) [nM]
CC(=O)N/C(=C/c1ccccc1)C(=O)Nc1ccc(CC(=O)NCc2ccccc2)cc1 [KIM-111V, (E)-2-acetamido-N-(4-(2-(benzylamino)-2-oxoethyl)phenyl)-3-phenylacrylamide] | > 100 | > 100 | 197 | – | – | – | – | – | – | – | –
CC1=N/C(=C\c2ccc(Cl)cc2)C(=O)N1c1ccc(CC(=O)NCc2ccccc2)cc1 [KIM-121C, (Z)—N-benzyl-2-(4-(4-(4-chlorobenzylidene)-2-methyl-5-oxo-4,5-dihydro-1H-imidazol-1-yl)phenyl)acetamide] | – | 6.86 | 209 to 211 | – | – | – | – | – | – | – | –
COc1ccc(/C=C2\N=C(C)N(c3ccc(CC(=O)NCc4ccccc4)cc3)C2=O)cc1 [KIM-161C, (Z)—N-benzyl-2-(4-(4-(4-methoxybenzylidene)-2-methyl-5-oxo-4,5-dihydro-1H-imidazol-1-yl)phenyl)acetamide] | 3.5 | – | – | 262 | increase | 3 | more than 2 fold | more than 2 fold | more than 9.5 fold | > 8.45 | –
O=C(Cc1ccc(N2C(=O)/C(=C/c3ccco3)N=C2c2ccccc2)cc1)NCc1ccccc1 [KIM-241C, (Z)—N-benzyl-2-(4-(4-(furan-2-ylmethylene)-5-oxo-2-phenyl-4,5-dihydro-1H-imidazol-1-yl)phenyl)acetamide] | 0.145 | 0.243 | 199 to 200 | – | – | – | – | – | – | – | > 20000
